What all share (type): cell-based
For assay [1], the system named is H9c2 cells. Put plainly: Intracellular RSSH analysis by LC-MS/MS after subcellular fractionation. The settings on record: 200 μM, 2 h; for HPE-AM adducts of Cys-SSH and GSSH, cytoplasmic fraction: vs vehicle; for Cys-SH and GSH in mitochondria: did not reach statistical significance. On the procedure: After confirming efficient esterase-triggered RSSH generation from these newly developed precursors in PBS (pH 7.4), we next evaluated their ability to release RSSH in cardiac cells. […] H9c2 cells were treated with each donor (200 μM, 2 h), followed by subcellular fractionation using differential centrifugation to isolate cytoplasmic and mitochondrial fractions. Each fraction was subsequently incubated with the RSSH-trapping agent HPE-IAM (5 mM in methanol) to alkylate and stabilize transient RSSH species. The resulting adducts were analyzed by LC–MS/MS.[40, 41] In the cytoplasmic fraction, both donors increased HPE-AM adducts of Cys-SSH and GSSH, with APT-1 showing higher levels than APT-1-TPP (Figure 3a,b).
Figure 3. Measurement of cysteine hydropersulfide (Cys-SSH) and glutathione hydropersulfide (GSSH) in cytoplasm (a and b) and mitochondria (c and d) of H9c2 cells. Cells were treated with APT-1 (200 μM), APT-1-TPP (200 μM), or vehicle (0.01% DMSO in serum-free medium) for 2 h, followed by subcellular fractionation. Each fraction was incubated with HPE-IAM (5 mM, 30 min) to trap RSSH species prior to LC–MS/MS analysis. Data are mean ± SEM (n = 3); *p ≤ 0.05, **p ≤ 0.01. […]
Intracellular RSSH Analysis by LC-MS
H9c2 cells were cultured in 150-mm dishes to 80–90% confluency and treated for 2 h with either control medium (FBS-free DMEM, 0.01% DMSO) or 200 μM RSSH donors (FBS-free DMEM with APT-1 or APT-1-TPP). Cells were washed two times with warm PBS, collected by scraping, and centrifuged at 1,000 × g for 10 min at 4 °C (Sorvall ST 8R, ThermoFisher). Pellets were resuspended in 0.6 mL sucrose buffer; ¼ was reserved for BCA assay and ¾ used for fractionation. Cells were lysed on ice by 20 passages through a 26-G needle and centrifuged at 1,500 × g for 10 min at 4 °C (Z 216 MK, HERMLE). Pellets (nuclear/debris fraction) were collected, and supernatants were centrifuged at 12,000 × g for 10 min at 4 °C. Pellets (mitochondrial fraction) and supernatants (cytoplasmic fraction) were collected. Each of these fractions were resuspended in methanol containing 5 mM HPE-IAM, sonicated (3 × 10 s on/10 s off, Branson Sonifier SFX150), incubated at 37 °C for 30 min, and centrifuged at 16,000 × g for 10 min at 4 °C.
Supernatants were analyzed by MRM LC-MS/MS (Ultivo Triple Quadrupole, Agilent) using a Poroshell 120 EC-C18 column (4.6 × 100 mm, 2.7 μm; Agilent) at 30 °C, 0.6 mL/min, with the following gradient (solvent A: water + 0.1% TFA; solvent B: acetonitrile + 0.1% TFA): 0–1.5 min, […]
min, 97% A. Injection volume: 10 μL. Experiments were performed in triplicate (n = 3 biological replicates). Data are shown as mean ± SEM. […]
Ta b l e S1. MRM parameters for LC-MS/MS
Analyte Polarity Precursor ion Product ion Collision energy
Figure S21. Measurement of H2S2, and H2S in cytoplasm (A, B) and mitochondria (C,D) of H9c2 cells treated with APT-1 (200 µM) APT-1-TPP (200 µM), or vehicle (0.01% DMSO in serum-free medium) for 2 h. Data are mean ± SEM (n = 3); *p ≤ 0.05, **p ≤ 0.01.
Figure S22. Measurement of Cys-SH and GSH in cytoplasm (A, B) and mitochondria (C, D) of H9c2 cells […]
Cytotoxicity Assessment of Hydropersulfide Precursors in H9c2 and HepG2 cells Cell viability was measured using the Cell Counting Kit-8 (CCK-8, Dojindo).[7] H9c2 cardiomyoblast and HepG2 cells were seeded at a density of 8 × 10³ cells/well in a 96-well plate (flat-bottom, tissue culture-treated). […]

Assay [2] relates to H9c2 cells. Put plainly: Intracellular ATP levels (CellTiter-Glo) under DOX. Particulars: donor 25 μM, 4 h pretreatment, DOX 5 μM 24 h. On the procedure:
(§1) Figure 6. a) Basal sulfane sulfur (SS) levels in H9c2 cardiomyocyte, MDA-MB-468, MCF-7, and HepG2 cell lines as detected by SSP4 fluorescence. b) Representative images and c) basal levels of mitochondrial membrane potential (MMP) in H9c2 and cancer cells (MDA-MB-468, MCF-7, and HepG2). d) Impact of APT-1 (25 μM) or APT-1-TPP (25 μM) on MMP in DOX (5 μM)-treated (d) H9c2 and e) HepG2 cells. Impact of APT-1 (25 μM) and APT-1-TPP (25 μM) on ATP levels in DOX (5 μM)-treated f) H9c2 and g) HepG2 cells. Results are expressed as mean ± SEM, n = 3–6; *P < 0.05, **P < 0.01, ***P < 0.001, ****P < 0.0001. Significances in (a) and (c) are presented with respect to H9c2 cells.
(§2) We then examined how RSSH donors influence MMP during DOX exposure. As expected, DOX alone induced mitochondrial depolarization in H9c2 cells, reducing MMP to ca. 50% of control (Figure 6d). […] To complement these observations, we quantified intracellular ATP levels as a functional readout of mitochondrial activity. […]
(§3) Briefly, H9c2 cells and HepG2 cells were seeded in 96-well white-bottom plate (Alkali Scientific, SKU:TPW9096, TC-treated) at 5000 cells/well. After treatment (Ctrl, 5 μM DOX alone, 4 h pretreatment of 25 μM APT-1 + 24 h cotreatment with 5 μM DOX, and 4 h pretreatment of 25 μM APT-1-TPP + 24 h cotreatment with 5 μM DOX, in clear DMEM medium with 10% FBS), cells were equilibrated at rt for 30 min before CellTiter-Glo® reagent was added to each well. Plates were then placed on an orbital shaker for 2 min and incubated at rt for another 20 min.
(§4) Chemiluminescence was measured using Tecan plate reader (SPARK Part No. 30124664 Version 1.7, serial No. 1909010319). Cellular AT P concentration was calculated based on the AT P calibration curve and normalized to cell count. […] Each treatment condition was performed in 6 technical replicates per biological replicate, and the experiment was independently repeated three times (n = 3 biological replicates).
(§5) Data are presented as mean ± SEM. […]

The next assay deals with HepG2 cells. Nature of the assay: Intracellular ATP levels (CellTiter-Glo) under DOX. Particulars: donor 25 μM, 4 h pretreatment, DOX 5 μM 24 h. The protocol:
as §1, §2, §3, §4, §5

The structures appear in SMILES notation.

Consider two molecules from publication PMC13224100, “Esterase-Responsive Mitochondria-Targeted Hydropersulfide Donors Mitigate Doxorubicin Cardiotoxicity While Preserving Anticancer Activity” (Angewandte Chemie (International ed. in English), 2025).

For `COC(=O)C(NC(C)=O)C(C)(C)SSC(=O)N(C)CCOC(C)=O` (stereo not shown) [APT-1], in the assay with H9c2 cells [1], the “Cys-SH and GSH in the cytoplasm” value is “significant increases”; the “H2S and H2S2 levels in the cytoplasm” value was “elevated”; the “HPE-AM adducts of Cys-SSH and GSSH, cytoplasmic fraction” value is on record as “increased”; the “Cys-SH and GSH in mitochondria” value is recorded as “modest increases”. Also, the “effect on DOX-reduced ATP levels” value in the assay on H9c2 cells [2] is “restored”. The “effect on DOX-induced ATP depletion” value in the assay on HepG2 cells is given as “neither donor rescued DOX-induced ATP depletion”.

Regarding `CC(=O)NC(C(=O)N(C)CCC[P+](c1ccccc1)(c1ccccc1)c1ccccc1)C(C)(C)SSC(=O)N(C)CCOC(C)=O` (stereo not shown) [APT-1-TPP], in the assay on H9c2 cells [1], the “Cys-SH and GSH in the cytoplasm” value is recorded as “significant increases”; the “H2S and H2S2 levels in mitochondria” value was “elevated”; the “HPE-AM adducts of Cys-SSH and GSSH, cytoplasmic fraction” value is recorded as “increased”; the “Cys-SH and GSH in mitochondria” value was “modest increases”. The “Cys-SSH and GSSH adducts, mitochondrial fraction” value in the assay with H9c2 cells [1] (compared with APT-1) is “substantially higher levels”. Also, the “effect on DOX-reduced ATP levels” value in the assay on H9c2 cells [2] was “restored”. Besides, the “effect on DOX-induced ATP depletion” value in the assay on HepG2 cells is “neither donor rescued DOX-induced ATP depletion”.
